Laboratory results taken from patent publication US5602102A, “Dipeptidyl peptidase-I inhibitors and uses thereof” (Board of Regents, The Univ. of TX System, priority 1992, dated 1997).
Where two headings read alike, the source gives them in different places. *1 amine or outer side, *2 acyl side, *3 side chain or, on linkers, in order; H or OH if unused. Where a SMILES comes first, the peptide text is derived from it. The star is where a group is joined. pNA = O=[N+]([O-])c1ccc(N*)cc1; AMC = Cc1cc(=O)oc2cc(N*)ccc12; Suc = O=C(CCC(=O)[*:2])[*:1]; βNA = c1ccc2cc(N*)ccc2c1; Cbz = O=C(OCc1ccccc1)*

Legend:
[1] = target: DPPI (Homo sapiens, UniProt P53634); test: Substrate specificity of human DPPI: hydrolysis of synthetic peptide substrates; assay type: biochemical; set-up: Human DPPI is now established to constitute a 200,000 Da glycoprotein with 24,000 Da subunits; from tissue; host or cells: human cadaveric spleen; unit not given here
Chain of DPPI (P53634 231-394 limits assumed): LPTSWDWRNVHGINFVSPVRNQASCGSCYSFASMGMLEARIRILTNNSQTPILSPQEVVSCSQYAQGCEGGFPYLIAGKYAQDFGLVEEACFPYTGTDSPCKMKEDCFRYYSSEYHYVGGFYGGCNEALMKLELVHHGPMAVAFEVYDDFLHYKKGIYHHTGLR
Chain of DPPI (P53634 25-134 limits assumed): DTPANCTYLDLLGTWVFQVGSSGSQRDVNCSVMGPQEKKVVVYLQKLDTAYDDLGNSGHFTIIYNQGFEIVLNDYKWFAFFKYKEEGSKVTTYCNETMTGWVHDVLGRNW
Chain of DPPI (P53634 395-463 limits assumed): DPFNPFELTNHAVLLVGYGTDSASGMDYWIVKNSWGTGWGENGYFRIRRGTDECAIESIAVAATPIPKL
Text: The specificity of human DPPI was studied using a variety of synthetic peptide substrates. These substrates appear in Table 5.
Substrates with blocked amino-termini, with proline at the P1 position, arginine at the P2, or containing only single amino acids, were not hydrolyzed. […] The amino-terminal sequence of bovine α-casein, Arg--Pro, prohibits the processive cleavage of amino-terminal dipeptides from this protein and therefore should increase the ability to specifically detect endoproteolytic activity, if present.

[2] = target: murine granzyme A proenzyme (murine) (UniProt P11032); conditions: scale: Δabsorbance410/hour per cells
[3] = target: T1, human dipeptidyl peptidase-I (Homo sapiens, UniProt P53634); test: Effect of protease inhibitors on DPPI activity (purified enzyme); assay type: biochemical; set-up: Human DPPI is now established to constitute a 200,000 Da glycoprotein with 24,000 Da subunits; from tissue; host or cells: human cadaveric spleen
Description: Note. Purified human dipeptidyl peptidaseI (0.4 μg) was preincubated
with each of the inhibitors at the stated concentration for 15 min at
37° C.. Each sample was diluted 3fold with assay buffer containing
substrate and incubated for an additional 20 min.
Target sequence in this assay (P53634 231-394 limits assumed): as the sequence (P53634 231-394 limits assumed) above
Target sequence in this assay (P53634 25-134 limits assumed): as the sequence (P53634 25-134 limits assumed) above
Target sequence in this assay (P53634 395-463 limits assumed): as the sequence (P53634 395-463 limits assumed) above

[4] = target: T1, human dipeptidyl peptidase-I
[5] = system: NK cells; test: Depletion of NK cells by dipeptide esters; assay type: cell-based
[6] = inhibitor 1 mM, preincubated 15 min at 37° C.
[7] = inhibitor 1 mM, preincubated 15 min at 37° C., read-out: Percentage control activity

## Cc1cc(=O)oc2cc(NC(=O)[C@H](CCCN=C(N)N)NC(=O)[C@H](Cc3ccccc3)NC(=O)[C@@H]3CCCN3)ccc12 [Pro-Phe-Arg-AMC] (H-Pro-Phe-Arg-{AMC})
[1]; substrate concentration 100 μM
  hydrolysis of substrate peptide by human DPPI: 0
[1]; substrate concentration 500 μM
  hydrolysis of substrate peptide by human DPPI: 0

## NCC(=O)N[C@@H](Cc1ccccc1)C(=O)Nc1ccc2ccccc2c1 [Gly-Phe-βNA] (H-Gly-Phe-βNA)
[1]; substrate concentration 100 μM
  hydrolysis of substrate peptide by human DPPI: 2380
[1]; substrate concentration 500 μM
  hydrolysis of substrate peptide by human DPPI: 4380

## CC(C)C[C@H](N)C(=O)Nc1ccc2ccccc2c1 [Leu-βNA]
[1]; substrate concentration 100 μM
  hydrolysis of substrate peptide by human DPPI: 0
[1]; substrate concentration 500 μM
  hydrolysis of substrate peptide by human DPPI: 0

## COc1cc(NC(=O)C(Cc2ccc(O)cc2)NC(=O)C(N)CO)cc2ccccc12 (stereo not drawn) [Ser-Tyr-MNA]
[1]; substrate concentration 100 μM
  hydrolysis of substrate peptide by human DPPI: 1000
[1]; substrate concentration 500 μM
  hydrolysis of substrate peptide by human DPPI: 1750

## murine dipeptidyl peptidase-I (from UniProt P97821) (enzyme)
[2]
  generation of BLT esterase activity in murine alloreactive CD8(+) T cells with DPPI inhibited: 3.3

## NC(N)=NCCC[C@H](N)C(=O)Nc1ccc2ccccc2c1 [Arg-βNA]
[1]; substrate concentration 100 μM
  hydrolysis of substrate peptide by human DPPI: 0
[1]; substrate concentration 500 μM
  hydrolysis of substrate peptide by human DPPI: 0

## C[C@H](NC(=O)CCC(=O)O)C(=O)N[C@@H](C)C(=O)N1CCC[C@H]1C(=O)N[C@@H](Cc1ccccc1)C(=O)Nc1ccc([N+](=O)[O-])cc1 [Suc-Ala-Ala-Pro-Phe-pNA] (Suc-AAPF-pNA)
[1]; substrate concentration 100 μM
  hydrolysis of substrate peptide by human DPPI: 0
[1]; substrate concentration 500 μM
  hydrolysis of substrate peptide by human DPPI: 0

## NCC(=O)Nc1ccc2ccccc2c1 [Gly-βNA]
[1]; substrate concentration 100 μM
  hydrolysis of substrate peptide by human DPPI: 0
[1]; substrate concentration 500 μM
  hydrolysis of substrate peptide by human DPPI: 0

## N=C(N)NCCCC(NC(=O)OCc1ccccc1)C(=O)Nc1ccc2ccccc2c1 (stereo not drawn) [CBZ-Arg-βNA]
[1]; substrate concentration 100 μM
  hydrolysis of substrate peptide by human DPPI: 0
[1]; substrate concentration 500 μM
  hydrolysis of substrate peptide by human DPPI: 0

## Cc1cc(=O)oc2cc(NC(=O)[C@H](CCCN=C(N)N)NC(=O)[C@@H]3CCCN3C(=O)CNC(=O)OCc3ccccc3)ccc12 [CBZ-Gly-Pro-Arg-AMC] (Cbz-Gly-Pro-Arg-{AMC})
[1]; substrate concentration 100 μM
  hydrolysis of substrate peptide by human DPPI: 0
[1]; substrate concentration 500 μM
  hydrolysis of substrate peptide by human DPPI: 0

## NCC(=O)N1CCC[C@H]1C(=O)Nc1ccc2ccccc2c1 [Gly-Pro-βNA] (H-Gly-Pro-βNA)
[1]; substrate concentration 100 μM
  hydrolysis of substrate peptide by human DPPI: 0
[1]; substrate concentration 500 μM
  hydrolysis of substrate peptide by human DPPI: 0

## NCC(=O)N[C@@H](Cc1ccccc1)C(=O)Nc1ccc([N+](=O)[O-])cc1 [Gly-Phe-pNA] (H-Gly-Phe-pNA)
[1]; substrate concentration 100 μM
  hydrolysis of substrate peptide by human DPPI: 120
[1]; substrate concentration 500 μM
  hydrolysis of substrate peptide by human DPPI: 380

## NC(N)=NCCC[C@H](NC(=O)OCc1ccccc1)C(=O)N[C@@H](CCCN=C(N)N)C(=O)Nc1ccc2ccccc2c1 [CBZ-Arg-Arg-βNA] (Cbz-Arg-Arg-βNA)
[1]; substrate concentration 100 μM
  hydrolysis of substrate peptide by human DPPI: 0
[1]; substrate concentration 500 μM
  hydrolysis of substrate peptide by human DPPI: 0

## Cystatin [listing 1 of 2 here]
[3]; inhibitor 50 μg/ml, preincubated 15 min at 37° C.
  Percentage control activity: 32%
[3]; screening conditions pH 5.5
  effect on DPPI activity (in words): potently inhibited

## CC(C)C[C@H](NC(=O)[C@@H](O)[C@H](N)Cc1ccccc1)C(=O)O [Bestatin]
[3]; inhibitor 500 μg/ml, preincubated 15 min at 37° C., read-out: Percentage control activity
  remaining activity at 500 µg/mL: 103%
[3]; screening conditions pH 5.5
  effect on DPPI activity (in words): no effect

## c1ccc(SSc2ccccn2)nc1 [2,2'-Dithiodipyridine]
[3]; inhibitor 400 μM, preincubated 15 min at 37° C., read-out: Percentage control activity
  remaining activity at 400 µM: 9%
[3]; screening conditions pH 5.5
  effect on DPPI activity (in words): inhibited

## Cystatin [listing 2 of 2 here]
[4]
  Percentage control activity of purified human DPPI (% of control activity (at 50 µg/ml)): 32

## CCCC[C@H](NC(=O)[C@@H](N)CCCC)C(=O)OC [norleucyl-norleucine methyl ester]
[5]
  more active than Leu--Leu--OMe: 2 fold

## Cc1ccc(S(=O)(=O)NC(CCCCN)C(=O)CCl)cc1 (stereo not drawn) [TLCK, 1-chloro-3-tosylamido-7-amino-2-heptanone]
[3]; [6]
  Percentage control activity: 5%
[3]; screening conditions pH 5.5
  effect on DPPI activity (in words): potently inhibited

## COc1cc(NC(=O)[C@@H]2CCCN2C(=O)CN)cc2ccccc12 [Gly-Pro-MNA]
[1]; substrate concentration 100 μM
  hydrolysis of substrate peptide by human DPPI: 0
[1]; substrate concentration 500 μM
  hydrolysis of substrate peptide by human DPPI: 0

## COc1cc(NC(=O)C(Cc2ccccc2)NC(=O)CN)cc2ccccc12 (stereo not drawn) [Gly-Phe-MNA]
[1]; substrate concentration 100 μM
  hydrolysis of substrate peptide by human DPPI: 3500
[1]; substrate concentration 500 μM
  hydrolysis of substrate peptide by human DPPI: 5750

## C[C@H](NC(=O)[C@@H](N)CC(=O)O)C(=O)Nc1ccc2ccccc2c1 [Asp-Ala-βNA] (H-Asp-Ala-βNA)
[1]; substrate concentration 100 μM
  hydrolysis of substrate peptide by human DPPI: 250
[1]; substrate concentration 500 μM
  hydrolysis of substrate peptide by human DPPI: 1000

## COc1cc(NC(=O)[C@H](CCCN=C(N)N)NC(=O)[C@H](CC(C)C)NC(=O)[C@@H](NC(=O)OCc2ccccc2)C(C)C)cc2ccccc12 [CBZ-Val-Leu-Arg-MNA]
[1]; substrate concentration 100 μM
  hydrolysis of substrate peptide by human DPPI: 0
[1]; substrate concentration 500 μM
  hydrolysis of substrate peptide by human DPPI: 0

## C[C@H](N)C(=O)N[C@@H](C)C(=O)Nc1ccc([N+](=O)[O-])cc1 [Ala-Ala-pNA] (H-Ala-Ala-pNA)
[1]; substrate concentration 100 μM
  hydrolysis of substrate peptide by human DPPI: 380
[1]; substrate concentration 500 μM
  hydrolysis of substrate peptide by human DPPI: 1000

## C[C@H](NC(=O)CCC(=O)O)C(=O)N[C@@H](C)C(=O)N[C@@H](C)C(=O)Nc1ccc([N+](=O)[O-])cc1 [Suc-Ala-Ala-Ala-pNA]
[1]; substrate concentration 100 μM
  hydrolysis of substrate peptide by human DPPI: 0
[1]; substrate concentration 500 μM
  hydrolysis of substrate peptide by human DPPI: 0

## CC(C)C[C@H](NC(=O)[C@@H](N)CC(C)C)C(=O)OCc1ccccc1 [benzyl ester derivative of Leu--Leu--OMe]
[5]
  more potent than Leu--Leu--OMe in mediating depletion of NK cells: 5 fold

## N[C@@H](Cc1ccccc1)C(=O)Nc1ccc2ccccc2c1 [Phe-βNA]
[1]; substrate concentration 100 μM
  hydrolysis of substrate peptide by human DPPI: 0
[1]; substrate concentration 500 μM
  hydrolysis of substrate peptide by human DPPI: 0

## O=C(Nc1ccc2ccccc2c1)[C@@H]1CCCN1 [Pro-βNA]
[1]; substrate concentration 100 μM
  hydrolysis of substrate peptide by human DPPI: 0
[1]; substrate concentration 500 μM
  hydrolysis of substrate peptide by human DPPI: 0

## O=C(O)CI [Iodoacetic acid]
[3]; pH 5.5
  effect on DPPI activity (in words): potently inhibited
[3]; read-out: Percentage control activity
  remaining activity at 1000 µM: 10%

## c1cnc2c(c1)ccc1cccnc12 [1,10-Phenanthroline]
[3]; [7]
  remaining activity at 1000 µM: 98%

## Cc1cc(=O)oc2cc(NC(=O)C(CCCCN)NC(=O)OCc3ccccc3)ccc12 (stereo not drawn) [CBZ-Lys-AMC]
[1]; substrate concentration 100 μM
  hydrolysis of substrate peptide by human DPPI: 0
[1]; substrate concentration 500 μM
  hydrolysis of substrate peptide by human DPPI: 0

## N=C(N)NCCC[C@H](NC(=O)[C@@H](N)CCCNC(=N)N)C(=O)Nc1ccc2ccccc2c1 [Arg-Arg-βNA] (H-Arg-Arg-βNA)
[1]; substrate concentration 100 μM
  hydrolysis of substrate peptide by human DPPI: 0
[1]; substrate concentration 500 μM
  hydrolysis of substrate peptide by human DPPI: 0

## N[C@@H](CO)C(=O)N[C@@H](Cc1ccc(O)cc1)C(=O)Nc1ccc2ccccc2c1 [Ser-Tyr-βNA] (H-Ser-Tyr-βNA)
[1]; substrate concentration 100 μM
  hydrolysis of substrate peptide by human DPPI: 1750
[1]; substrate concentration 500 μM
  hydrolysis of substrate peptide by human DPPI: 2000

## O=C(NC(Cc1ccccc1)C(=O)Nc1ccc2ccccc2c1)OCc1ccccc1 (stereo not drawn) [CBZ-Phe-βNA]
[1]; substrate concentration 100 μM
  hydrolysis of substrate peptide by human DPPI: 0
[1]; substrate concentration 500 μM
  hydrolysis of substrate peptide by human DPPI: 0

## CCN1C(=O)C=CC1=O [N-Ethylmaleimide]
[3]; [7]
  remaining activity at 1000 µM: 63%
[3]; screening conditions pH 5.5
  effect on DPPI activity (in words): inhibited

## C[C@H](N)C(=O)Nc1ccc2ccccc2c1 [Ala-βNA]
[1]; substrate concentration 100 μM
  hydrolysis of substrate peptide by human DPPI: 0
[1]; substrate concentration 500 μM
  hydrolysis of substrate peptide by human DPPI: 0

## COC([CH2][Hg+])CNC(=O)c1ccccc1OCC(=O)O.[OH-] (stereo not drawn) [Mersalyl acid]
[3]; [6]
  Percentage control activity: 3%
[3]; screening conditions pH 5.5
  effect on DPPI activity (in words): potently inhibited

## Cc1cc(=O)oc2cc(NC(=O)[C@H](Cc3ccccc3)NC(=O)CN)ccc12 [Gly-Phe-AMC] (H-Gly-Phe-{AMC})
[1]; substrate concentration 100 μM
  hydrolysis of substrate peptide by human DPPI: 3500
[1]; substrate concentration 500 μM
  hydrolysis of substrate peptide by human DPPI: 6120

## CC(N)C(=O)NC(C)C(=O)NC(C(=O)NC(C)C(=O)Nc1ccc([N+](=O)[O-])cc1)C(C)C (stereo not drawn) [Ala-Ala-Val-Ala-pNA] (H-AAVA-pNA; configuration not given here)
[1]; substrate concentration 100 μM
  hydrolysis of substrate peptide by human DPPI: 120
[1]; substrate concentration 500 μM
  hydrolysis of substrate peptide by human DPPI: 120

## COc1cc(NC(=O)C(CCCN=C(N)N)NC(=O)CN)cc2ccccc12 (stereo not drawn) [Gly-Arg-MNA]
[1]; substrate concentration 100 μM
  hydrolysis of substrate peptide by human DPPI: 2500
[1]; substrate concentration 500 μM
  hydrolysis of substrate peptide by human DPPI: 4750
